In US20250169498A1, “SYNERGISTIC FUNGICIDAL INTERACTIONS OF A PICOLINAMIDE FUNGICIDE WITH OTHER FUNGICIDES AGAINST ASIAN SOYBEAN RUST” (CORTEVA AGRISCIENCE LLC, priority 2020, published 2025):

Legend:
[1] = tested on: Phakopsora pachyrhizi, PHAKPA; experiment: 3-day curative (3 DC) PHAKPA test on soybean seedlings; format: in vivo; details: alone; for pest or weed control at 0.049 ppm: rate 0.049 ppm; for pest or weed control at 0.195 ppm: rate 0.195 ppm; for pest or weed control at 0.024 ppm: rate 0.024 ppm
Experimental: (§1) Fungicides were evaluated vs. PHAKPA either alone or in binary or ternary mixtures by combining each fungicide with Compound I. Technical grades of materials were dissolved in 1.5 ml of acetone, which were then mixed with 13.5 ml of water containing 0.011% Tween 20. The fungicide solutions were applied onto soybean seedlings using an automated booth sprayer to run-off. All sprayed plants were allowed to air dry prior to further handling. Soybean plants (variety Williams 82) were grown in soil-less Metro mix, with one plant per pot. Two weeks old seedlings were used for testing. Plants were inoculated either 3 days prior to or 1 day after fungicide treatments. Plants were incubated for 24 h in a dark dew room at 22° C. and 100% RH then transferred to a growth room at 23° C. for disease to develop. Once disease fully expressed on untreated plants, disease severity was assessed on the sprayed monofoliate leaves.
(§2) Synergy factors were calculated using Colby's method. The expected disease control (% DC exp) of a mixture consisting of two or three components can be predicted by the following formula: […]
(§3) where A, B, C are the percent disease control given by the individual fungicide component at the defined rate in the mixture. If the ratio (synergy factor) between the observed disease control of the mixture (% DCobs) and the expected disease control of the mixture (% DCexp) is greater than 1, synergistic interaction is present.
(§4) When disease fully developed on the control plants, infection levels were assessed on treated plants visually and scored on a scale of 0 to 100 percent. Percentage of disease control was then calculated using the ratio of disease on treated plants relative to control plants. […]

[2] = tested on: Phakopsora pachyrhizi, PHAKPA; experiment: 1-day protectant (1 DP) PHAKPA test on soybean seedlings; format: in vivo; details: alone; for pest or weed control at 0.049 ppm: rate 0.049 ppm; for pest or weed control at 0.024 ppm: rate 0.024 ppm; for pest or weed control at 0.0015 ppm: rate 0.0015 ppm; for pest or weed control at 0.006 ppm: rate 0.006 ppm; for pest or weed control at 12.5 ppm: rate 12.5 ppm
Experimental: as §1, §2, §3, §4

[3] = Phakopsora pachyrhizi, rate 0.78 ppm, read-out: % DC obs
[4] = Phakopsora pachyrhizi, rate 3.125 ppm, read-out: % DC obs
[5] = Phakopsora pachyrhizi, rate 0.195 ppm, read-out: % DC obs
[6] = Phakopsora pachyrhizi, read-out: % DC obs
[7] = Phakopsora pachyrhizi, rate 37.5 ppm, read-out: % DC obs
[8] = Phakopsora pachyrhizi, rate 75 ppm, read-out: % DC obs
[9] = Phakopsora pachyrhizi, rate 0.19 ppm, read-out: % DC obs
[10] = Phakopsora pachyrhizi, rate 0.39 ppm, read-out: % DC obs
[11] = Phakopsora pachyrhizi, rate 200 ppm, read-out: % DC obs
[12] = Phakopsora pachyrhizi, rate 0.012 ppm, read-out: % DC obs

Cn1cc(C(=O)Nc2ccc(F)cc2-c2ccc(Cl)c(Cl)c2)c(C(F)F)n1 [Bixafen, N-(3′,4′-dichloro-5-fluoro[1,1′-biphenyl]-2-yl)-3-(difluoromethyl)-1-methyl-1H-pyrazole-4-carboxamide]
pest or weed control at 0.78 ppm [1, 3]: 0% | pest or weed control at 3.125 ppm [1, 4]: 0% | pest or weed control at 0.195 ppm [2, 5]: 0%

CC(O)(Cn1cncn1)c1ccc(Oc2ccc(Cl)cc2)cc1C(F)(F)F (stereo not shown) [Mefentrifluconazole, 2-[4-(4-chlorophenoxy)-2-(trifluoromethyl)phenyl]-1-(1,2,4-triazol-1-yl)propan-2-ol]
pest or weed control at 0.049 ppm [1, 6]: 43.7% | pest or weed control at 0.195 ppm [1, 6]: 69.1% | pest or weed control at 0.049 ppm [2, 6]: 9.9% | pest or weed control at 0.195 ppm [2, 5]: 87%

N#Cc1c(Cl)c(Cl)c(Cl)c(C#N)c1Cl [Chlorothalonil, tetrachlorisophthalonitrile]
pest or weed control at 37.5 ppm [1, 7]: 4.6% | pest or weed control at 75 ppm [1, 8]: 13.7% | pest or weed control at 150 ppm ([1]; Phakopsora pachyrhizi, rate 150 ppm, read-out: % DC obs): 18.3% | pest or weed control at 37.5 ppm [2, 7]: 0% | pest or weed control at 75 ppm [2, 8]: 87%

CC1COC(Cn2cncn2)(c2ccc(Oc3ccc(Cl)cc3)cc2Cl)O1 (stereo not shown) [Difenoconazole, 1-[[2-[2-chloro-4-(4-chlorophenoxy)phenyl]-4-methyl-1,3-dioxolan-2-yl]methyl]-1,2,4-triazole]
pest or weed control at 0.19 ppm [1, 9]: 18.3% | pest or weed control at 0.19 ppm [2, 9]: 41.9%

CO/C=C(/C(=O)OC)c1ccccc1Oc1cc(Oc2ccccc2C#N)ncn1 [Azoxystrobin, methyl (αE)-2-[[6-(2-cyanophenoxy)-4-pyrimidinyl]oxy]-α-(methoxymethylene)benzeneacetate]
pest or weed control at 0.39 ppm [1, 10]: 31.7% | pest or weed control at 0.024 ppm [2, 6]: 22.2% | pest or weed control at 0.098 ppm ([2]; Phakopsora pachyrhizi, rate 0.098 ppm, read-out: % DC obs): 50.4%

OC(Cc1ccccc1Cl)(Cn1[nH]cnc1=S)C1(Cl)CC1 (stereo not shown) [Prothioconazole, 2-[2-(1-chlorocyclopropyl)-3-(2-chlorophenyl)-2-hydroxypropyl]-1,2-dihydro-3H-1,2,4-triazole-3-thione]
pest or weed control at 0.0015 ppm [2, 6]: 0% | pest or weed control at 0.006 ppm [2, 6]: 7.4%

CCCC1COC(Cn2cncn2)(c2ccc(Cl)cc2Cl)O1 (stereo not shown) [Propiconazole, 1-[[2-(2,4-dichlorophenyl)-4-propyl-1,3-dioxolan-2-yl]methyl]-1,2,4-triazole]
pest or weed control at 0.049 ppm [1, 6]: 9.2% | pest or weed control at 0.195 ppm [1, 6]: 59.1% | pest or weed control at 0.195 ppm [2, 5]: 19.9% | pest or weed control at 0.78 ppm [2, 3]: 78%

CC(Cc1ccc(C(C)(C)C)cc1)CN1C[C@@H](C)O[C@@H](C)C1 (stereo partly drawn) [Fenpropimorph, (2S,6R)-4-[3-(4-tert-butylphenyl)-2-methylpropyl]-2,6-dimethylmorpholine]
pest or weed control at 100 ppm ([1]; Phakopsora pachyrhizi, rate 100 ppm, read-out: % DC obs): 36.4% | pest or weed control at 200 ppm [1, 11]: 61.9%

CC(C)(C)C(O)(CCc1ccc(Cl)cc1)Cn1cncn1 (stereo not shown) [Tebuconazole, 1-(4-chlorophenyl)-4,4-dimethyl-3-(1,2,4-triazol-1-ylmethyl)pentan-3-ol]
pest or weed control at 0.0015 ppm ([1]; Phakopsora pachyrhizi, rate 0.0015 ppm, read-out: % DC obs): 0% | pest or weed control at 0.006 ppm ([1]; Phakopsora pachyrhizi, rate 0.006 ppm, read-out: % DC obs): 0% | pest or weed control at 0.024 ppm [1, 6]: 11.7% | pest or weed control at 0.0015 ppm [2, 6]: 0% | pest or weed control at 0.006 ppm [2, 6]: 11.1%

Fc1ccc([C@]2(Cn3cncn3)O[C@H]2c2ccccc2Cl)cc1 (racemic) [Epoxiconazole, rel-1-[[(2R,3S)-3-(2-chlorophenyl)-2-(4-fluorophenyl)oxiranyl]methyl]-1H-1,2,4-triazole]
pest or weed control at 0.024 ppm [1, 6]: 0% | pest or weed control at 0.006 ppm [2, 6]: 3.7% | pest or weed control at 0.024 ppm [2, 6]: 48.1%

CO/N=C(/C(=O)OC)c1ccccc1CO/N=C(\C)c1cccc(C(F)(F)F)c1 [Trifloxystrobin, methyl (2E)-2-methoxyimino-2-[2-[[(E)-1-[3-(trifluoromethyl)phenyl]ethylideneamino]oxymethyl]phenyl]acetate]
pest or weed control at 0.195 ppm [1, 6]: 18.3%

CC(C1CC1)C(O)(Cn1cncn1)c1ccc(Cl)cc1 (stereo not shown) [Cyproconazole, 2-(4-chlorophenyl)-3-cyclopropyl-1-(1,2,4-triazol-1-yl)butan-2-ol]
pest or weed control at 0.0015 ppm [2, 6]: 11.1% | pest or weed control at 0.006 ppm [2, 6]: 3.7% | pest or weed control at 0.024 ppm [2, 6]: 11.1%

FC(F)C(F)(F)OCC(Cn1cncn1)c1ccc(Cl)cc1Cl (stereo not shown) [Tetraconazole, 1-[2-(2,4-dichlorophenyl)-3-(1,1,2,2-tetrafluoroethoxy)propyl]-1,2,4-triazole]
pest or weed control at 0.012 ppm [1, 12]: 13.7% | pest or weed control at 0.049 ppm [1, 6]: 13.7% | pest or weed control at 0.012 ppm [2, 12]: 0% | pest or weed control at 0.049 ppm [2, 6]: 0% | pest or weed control at 0.195 ppm [2, 5]: 90%

[Cl-].[Cu+2].[Cu+2].[OH-].[OH-].[OH-] [Cu Oxychloride]
% DC obs ([1]; rate 200 ppm): 13.7%

CCC(=O)Oc1c(OC)ccnc1C(=O)N[C@@H](C)C(=O)O[C@@H](C)[C@@H](C)c1ccccc1C [Compound I]
pest or weed control at 1.56 ppm ([1]; Phakopsora pachyrhizi, rate 1.56 ppm, read-out: % DC obs): 77.6% | pest or weed control at 0.39 ppm [2, 10]: 79.2%

Cn1cc(C(=O)Nc2ccccc2-c2cc(F)c(F)c(F)c2)c(C(F)F)n1 [Fluxapyroxad, 3-(difluoromethyl)-1-methyl-N-[2-(3,4,5-trifluorophenyl)phenyl]pyrazole-4-carboxamide]
pest or weed control at 0.195 ppm [1, 6]: 0% | pest or weed control at 3.125 ppm [1, 4]: 17.6% | pest or weed control at 0.195 ppm [2, 5]: 3.7% | pest or weed control at 0.78 ppm [2, 3]: 11.1% | pest or weed control at 3.125 ppm [2, 4]: 80%

zinc manganese(2+)N-[2-(sulfidocarbothioylamino)ethyl]carbamodithioate [Mancozeb]
% DC obs ([1]; rate 0.19 ppm): 14.8% | % DC obs ([1]; rate 0.78 ppm): 14.8% | % DC obs ([1]; rate 3.125 ppm): 0% | % DC obs ([1]; rate not given): 0% | % DC obs ([2]; rate 0.19 ppm): 3.8% | % DC obs ([2]; rate 0.78 ppm): 0% | % DC obs ([2]; rate 3.125 ppm): 0%

Cn1cc(C(=O)Nc2cccc3c2C2CCC3C2=C(Cl)Cl)c(C(F)F)n1 (stereo not shown) [Benzovindiflupyr, N-[11-(dichloromethylidene)-3-tricyclo[6.2.1.0]undeca-2(7),3,5-trienyl]-3-(difluoromethyl)-1-methylpyrazole-4-carboxamide]
% DC obs ([1]; rate 0.78 ppm): 11.7% | % DC obs ([2]; rate 0.195 ppm): 3.7% | % DC obs ([2]; rate 0.78 ppm): 11.1% | % DC obs ([2]; rate 3.125 ppm): 80.0%

CNC(=O)/C(=N/OC)c1ccccc1Oc1ccccc1 [Metominostrobin, (2E)-2-methoxyimino-N-methyl-2-(2-phenoxyphenyl)acetamide]
pest or weed control at 0.78 ppm [1, 3]: 33.3% | pest or weed control at 3.125 ppm [1, 4]: 67.6% | pest or weed control at 0.78 ppm [2, 3]: 0% | pest or weed control at 3.125 ppm [2, 4]: 11.1% | pest or weed control at 12.5 ppm [2, 6]: 64.4%

CO/C=C(/C(=O)OC)c1ccccc1COc1cccc(C(F)(F)F)n1 [Picoxystrobin, methyl (E)-3-methoxy-2-[2-[[6-(trifluoromethyl)pyridin-2-yl]oxymethyl]phenyl]prop-2-enoate]
pest or weed control at 0.049 ppm [1, 6]: 18.5% | pest or weed control at 0.195 ppm [1, 6]: 14.8% | pest or weed control at 0.78 ppm [1, 3]: 53.3% | pest or weed control at 0.195 ppm [2, 5]: 0% | pest or weed control at 0.78 ppm [2, 3]: 80% | % DC obs ([2]; rate 0.195 ppm): 0% | % DC obs ([2]; rate 0.78 ppm): 80%

CON(C(=O)c1cn(C)nc1C(F)F)C(C)Cc1c(Cl)cc(Cl)cc1Cl (stereo not shown) [Pydiflumetofen, 3-(difluoromethyl)-N-methoxy-1-methyl-N-[1-(2,4,6-trichlorophenyl)propan-2-yl]pyrazole-4-carboxamide]
pest or weed control at 12.5 ppm [2, 6]: 0% | pest or weed control at 50 ppm ([2]; Phakopsora pachyrhizi, rate 50 ppm, read-out: % DC obs): 15.3% | pest or weed control at 200 ppm [2, 11]: 85.4%
